Test results from ChEMBL document CHEMBL4342426, “Structure-activity relationship of 4-azaindole-2-piperidine derivatives as agents against Trypanosoma cruzi” (Bioorg Med Chem Lett, 2020).

Columns and labels:
in vitro [1] = conditions: mouse, peritoneal macrophages
Description: (§1) Cytotoxicity against mouse peritoneal Macrophage cells assessed as reduction in cell viability incubated for 3 days by fluorimetry

in vitro [2] = conditions: human, liver microsomes
Description: Metabolic stability in human liver microsomes assessed as intrinsic clearance at 0.5 uM incubated for 30 mins by LC-MS/MS analysis

Trypanosoma brucei = assay: microbe, parasite or virus in culture; conditions: Squib 427, 72 h
Description: Antitrypanosomal activity against Trypanosoma brucei Squib 427 assessed as reduction in parasite growth incubated for 72 hrs by resazurin dye based fluorimetric analysis

physchem = conditions: buffer, pH 7.4
Description: Lipophilicity, logD of compound at pH 7.4 by HPLC analysis

Trypanosoma cruzi = assay: microbe, parasite or virus in culture; conditions: Tulahuen CL2, MRC-5 SV2, 168 h
Description: Antitrypanosomal activity against Trypanosoma cruzi Tulahuen CL2 amastigotes infected in human MRC5 SV2 cells incubated for 7 days by chlorophenol red beta-D-galactopyranoside substrate based spectrophotometric assay

Macrophage = assay: cells; conditions: Mus musculus, 72 h
Description: as §1

in vitro [3] = conditions: mouse, liver microsomes
Description: Metabolic stability in mouse liver microsomes assessed as fraction unbound at 0.5 uM incubated for 30 mins by LC-MS/MS analysis

in vitro [4] = conditions: human, MRC5 SV2 cells
Description: (§2) Cytotoxicity against human MRC5 SV2 cells assessed as reduction in cell viability incubated for 3 days by fluorimetry

cells = conditions: Homo sapiens, MRC-5 SV2, 72 h
Description: as §2

Leishmania infantum = assay: microbe, parasite or virus in culture; conditions: for IC50: MHOM/MA(BE)/67/ITMAP263, 120 h; for IC90: MHOM/MA(BE)/67/ITMAP263, in Mus musculus, 120 h
Description: Antileishmanial activity against amastigote stage of Leishmania infantum MHOM/MA(BE)/67/ITMAP263 infected in mouse peritoneal macrophage assessed as parasite growth inhibition incubated for 5 days by Giemsa staining based assay

in vitro [5] = conditions: mouse, liver microsomes; remark: listed apart in the source
Description: Metabolic stability in mouse liver microsomes assessed as intrinsic clearance at 0.5 uM incubated for 30 mins by LC-MS/MS analysis

[6] = tested on: Trypanosoma brucei rhodesiense; assay: microbe, parasite or virus in culture; conditions: STIB900, 72 h
Description: Antiprotozoal activity against Trypanosoma brucei rhodesiense STIB900 trypomastigotes incubated for 72 hrs by resazurin dye based fluorimetric analysis

in vitro [7] = conditions: PAMPA
Description: Effective permeability of compound by PAMPA assay

in vitro [8] = conditions: human, MRC5 SV2 cells; remark: listed apart in the source
Description: Selectivity index, ratio of IC50 for human MRC5 SV2 cells to IC50 for Trypanosoma cruzi Tulahuen CL2 amastigotes infected in human MRC5 SV2 cells

IC90 at 72 h (in vitro [1]) [µM] | CLint scaled at 0.5 h, 0.5 µM (in vitro [2]) [mL/min/kg] | microsomal CLint at 0.5 h, 0.5 µM (in vitro [2]) [µL/min/mg] | IC50 (Trypanosoma brucei) [µM] | IC90 (Trypanosoma brucei) [µM] | logD (physchem) | fraction unbound at 0.5 h, 0.5 µM (in vitro [3]) | IC90 at 72 h (in vitro [4]) [µM] | IC50 (Leishmania infantum) [µM] | IC90 (Leishmania infantum) [µM] | CLint scaled at 0.5 h, 0.5 µM (in vitro [5]) [mL/min/kg] | microsomal CLint at 0.5 h, 0.5 µM (in vitro [5]) [µL/min/mg] | IC50 [6] [µM] | IC90 [6] [µM] | Papp (in vitro [7]) [×10⁻⁶ cm/s] | Structure (SMILES) | IC50 (Trypanosoma cruzi) [µM] | IC90 (Trypanosoma cruzi) [µM] | IC50 (Macrophage) [µM] | IC50 (cells) [µM] | selectivity ratio (in vitro [8])
64 | < 35 | < 23 | 64 | 64 | 1.85 | 0.705 | 64 | 64 | 64 | 281 | 62.1 | 64 | 64 | 3.98 | O=C(CCc1nc2cccnc2n1CCO)Nc1ccccc1 | 64 | 64 | 64 | 64 | –
64 | < 43.3 | < 23 | 64 | 64 | 2.03 | 0.571 | 64 | 64 | 64 | 140 | 25.1 | 64 | 64 | 5.23 | CCN(CCC(=O)Nc1cccnc1)C(=O)c1ccc(F)cc1 | 64 | 64 | 64 | 64 | –
64 | 35 | 26.4 | 64 | 64 | 3.39 | 0.815 | 64 | 64 | 64 | 593 | 151 | 19.6 | 30.6 | 14.4 | COc1ccc2[nH]c(C3CCCN(C(=O)c4ccc(F)cc4)C3)cc2n1 (stereo not drawn) | 64 | 64 | 64 | 64 | –
64 | 38.3 to 210 | 23 to 114 | 64 | 64 | 2.94 to 3.02 | 0.584 to 0.649 | 64 | 64 | 64 | 315 to 1070 | 64 to 196 | 64 | 64 | 0.584 to 2.12 | O=C(c1cccc(C(F)(F)F)n1)N1CCCC(c2cc3ncccc3[nH]2)C1 (stereo not drawn) | 14.8 to 26.1 | 59.3 to 60.5 | 64 | 64 | 2.42 to 4.35
64 | 468 | 91.3 | 64 | 64 | 2.3 | 0.211 | 64 | 64 | 64 | 19200 | 1270 | 64 | 64 | 16.5 | O=C(c1ccccc1)N1CCCC(c2cc3ncccn3n2)C1 (stereo not drawn) | 64 | 64 | 64 | 64 | –
64 | < 33.3 | < 23 | 64 | 64 | 2.68 | 0.738 | 64 | 64 | 64 | 4520 | 1040 | 64 | 64 | 0.94 | O=C(c1ccccc1)N1CCC(c2cc3ncccc3[nH]2)CC1 | 22.4 | 56.1 | 64 | 64 | 2.86
64 | < 37.8 | < 23 | 64 | 64 | 2.3 | 0.661 to 0.839 | 64 | 64 | 64 | < 88 | < 23 | 64 | 64 | 0.45 | CC(C)(O)c1cc(C(=O)N2CCCC(c3cc4ncccc4[nH]3)C2)on1 (stereo not drawn) | 33.6 | 64 | 64 | 64 | 1.9
64 | 29.5 | 26.2 | 64 | 64 | 2.3 | 0.96 | 64 | 64 | 64 | 774 | 233 | 64 | 64 | 2.88 | Cc1nc(C)c(C(=O)N2CCCC(c3cc4ncccc4[nH]3)C2)s1 (stereo not drawn) | 64 | 64 | 64 | 64 | –
64 | 119 | 69.1 | 64 | 64 | 2.19 | 0.626 | 64 | 64 | 64 | 1090 | 213 | 64 | 64 | 0.504 | O=C1c2ccccc2CN1CCc1cc2ncccc2[nH]1 | 64 | 64 | 64 | 64 | –
64 | 57.8 | 36.9 | 64 | 64 | 2.44 | 0.688 | 64 | 64 | 64 | 601 | 129 | 64 | 64 | 6.36 | COc1cc(C(=O)N2CCCC(c3cc4ncccc4[nH]3)C2)on1 (stereo not drawn) | 8.1 | 15.2 | 64 | 64 | 7.9
64 | < 36.7 | < 23 | 64 | 64 | 1.09 | 0.684 | 64 | 64 | 64 | < 108 | < 23 | 64 | 64 | 1.42 | Nc1cc(C2CCCN(C(=O)c3ccccc3)C2)[nH]n1 (stereo not drawn) | 64 | 64 | 64 | 64 | –
64 | < 26.7 | < 23 | 64 | 64 | 1.77 | 0.991 | 64 | 64 | 64 | 175 | 54.3 | 64 | 64 | 3.76 | Nc1cc(C2CCCN(C(=O)c3cc(C(F)(F)F)no3)C2)[nH]n1 (stereo not drawn) | 64 | 64 | 64 | 64 | –
64 | < 31.7 | < 23 | 64 | 64 | 1.71 | 0.805 | 64 | 64 | 64 | 338 | 127 | 64 | 64 | 2.75 | O=C(c1ccccc1)N1CCCC(c2cn3cccnc3n2)C1 (stereo not drawn) | 64 | 64 | 64 | 64 | –
64 | 49 | 38 | 64 | 64 | 2.58 | 0.836 | 64 | 64 | 64 | 3290 | 861 | 64 | 64 | 7.69 | CC(C)(C)OC(=O)N1CCCC(c2cn3cccnc3n2)C1 (stereo not drawn) | 64 | 64 | 64 | 64 | –
64 | 210 | 126 | 64 | 64 | 3.65 | 0.647 | 64 | 64 | 64 | – | – | 56 | 64 | 15.3 | O=C(Cc1ccccc1)N1CCN(c2nc3ccccc3s2)CC1 | 40 | 62.9 | 64 | 64 | 1.59
